Source: ChEMBL document CHEMBL1201862, “PubChem BioAssay data set” (2004)
Several values for one entry are separate records, joined by “and”; a condition that tells them apart may be missing. Identical values can stand only once.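 Compound exposure: 48 hours, 5 concentrations, 96-well plates. The concentration for 50% growth inhibition is given as GI50.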 Activity calls are given as the source filed them. No stated cut-off is given here; in the data, active = GI50 up to about 1.1 µM and inactive = higher.

What was measured:
Experiment in all cases: DTP human tumour cell line panel, 48 h
DMS-273 = tested on: DMS-273
DLD-1 = tested on: DLD-1
HCC 2998 = tested on: HCC 2998
IGROV-1 = tested on: IGROV-1
MCF7 = tested on: MCF7
SNB-19 = tested on: SNB-19
MDA-MB-231 = tested on: MDA-MB-231
SF-539 = tested on: SF-539
RPMI-8226 = tested on: RPMI-8226
DU-145 = tested on: DU-145
LXFL 529 = tested on: LXFL 529
HCT-116 = tested on: HCT-116
HL-60 = tested on: HL-60
CAKI-1 = tested on: CAKI-1
A549 = tested on: A549
MOLT-4 = tested on: MOLT-4
LOX IMVI = tested on: LOX IMVI
786-0 = tested on: 786-0
SR = tested on: SR
M14 = tested on: M14
NCI-H460 = tested on: NCI-H460
MDA-MB-435 = tested on: MDA-MB-435
Hs-578T = tested on: Hs-578T
HCT-15 = tested on: HCT-15
MDA-N = tested on: MDA-N
SK-MEL-5 = tested on: SK-MEL-5
NCI-H23 = tested on: NCI-H23
BT-549 = tested on: BT-549
ACHN = tested on: ACHN
HT-29 = tested on: HT-29
KM-20L2 = tested on: KM-20L2
XF498 = tested on: XF498
OVCAR-8 = tested on: OVCAR-8
PC-3 = tested on: PC-3
U-251 = tested on: U-251
NCI-H522 = tested on: NCI-H522
UACC-62 = tested on: UACC-62
Malme-3M = tested on: Malme-3M
SW-620 = tested on: SW-620
K562 = tested on: K562
SNB-75 = tested on: SNB-75
CCRF-CEM = tested on: CCRF-CEM
COLO 205 = tested on: COLO 205
TK-10 = tested on: TK-10
SNB-78 = tested on: SNB-78
SK-OV-3 = tested on: SK-OV-3
RXF 393 = tested on: RXF 393
SN12C = tested on: SN12C
OVCAR-4 = tested on: OVCAR-4
SK-MEL-28 = tested on: SK-MEL-28
SF-268 = tested on: SF-268
HOP-62 = tested on: HOP-62
OVCAR-3 = tested on: OVCAR-3
KM12 = tested on: KM12
SK-MEL-2 = tested on: SK-MEL-2
HOP-18 = tested on: HOP-18
M19-MEL = tested on: M19-MEL
UO-31 = tested on: UO-31
NCI-H226 = tested on: NCI-H226
A498 = tested on: A498
SF-295 = tested on: SF-295
DMS-114 = tested on: DMS-114
OVCAR-5 = tested on: OVCAR-5
UACC-257 = tested on: UACC-257

Measured: GI50

Nc1nc(N)c2nc(CNc3ccc(C(=O)NC(CCCNC(=O)c4ccccc4C(=O)O)C(=O)O)cc3)cnc2n1 (stereo not given)
active: DMS-273 0.01 µM | DLD-1 < 0.01 µM | HCC 2998 < 0.01 µM | IGROV-1 < 0.01 µM | MCF7 10 nM | SNB-19 < 20.2 nM and 21.6 nM | SF-539 < 0.01 µM | RPMI-8226 < 0.01 µM | DU-145 10 nM | LXFL 529 0.000762 µM | HCT-116 < 0.215 µM | HL-60 < 0.01 µM | CAKI-1 0.01 µM | A549 < 0.01 µM | MOLT-4 < 19.4 nM and < 10 nM | LOX IMVI < 0.01 µM | 786-0 0.01 µM | SR 10 nM | M14 0.01 µM | NCI-H460 < 0.01 µM | MDA-MB-435 3.11 nM | MDA-N 10 nM | SK-MEL-5 10 nM and < 18.4 nM | NCI-H23 < 0.01 µM | ACHN 0.01 µM | HT-29 < 0.01 µM | KM-20L2 0.00875 µM | OVCAR-8 < 0.01 µM | PC-3 10 nM | U-251 < 10 nM and 14.3 nM | NCI-H522 < 0.01 µM
inactive: MDA-MB-231 > 100 µM | Hs-578T > 100 µM | BT-549 6.18 µM | XF498 > 100 µM
10 nM: HCT-15

COc1cccc2c1C1(O)C2CCCC12OCCCO2 (stereo not given)
inactive: DMS-273 > 100 µM | DLD-1 > 100 µM | UACC-62 > 100 µM | HCC 2998 > 100 µM | Malme-3M > 100 µM | SW-620 > 100 µM | IGROV-1 > 100 µM | K562 > 100 µM | SNB-19 > 100 µM | SF-539 > 100 µM | SNB-75 > 100 µM | RPMI-8226 > 100 µM | CCRF-CEM > 100 µM | COLO 205 > 100 µM | LXFL 529 > 100 µM | TK-10 > 100 µM | SNB-78 > 100 µM | HCT-116 > 100 µM | SK-OV-3 > 100 µM | HL-60 > 100 µM | CAKI-1 > 100 µM | RXF 393 > 100 µM | SN12C > 100 µM | A549 > 100 µM | MOLT-4 > 100 µM | OVCAR-4 > 100 µM | SK-MEL-28 > 100 µM | LOX IMVI > 100 µM | SF-268 > 100 µM | 786-0 > 100 µM | M14 > 100 µM | HOP-62 > 100 µM | OVCAR-3 > 100 µM | NCI-H460 > 100 µM | KM12 > 100 µM | SK-MEL-2 > 100 µM | SK-MEL-5 > 100 µM | HOP-18 > 100 µM | M19-MEL > 100 µM | NCI-H23 > 100 µM | ACHN > 100 µM | UO-31 > 100 µM | NCI-H226 > 100 µM | A498 > 100 µM | HT-29 > 100 µM | KM-20L2 > 100 µM | SF-295 > 100 µM | OVCAR-8 > 100 µM | DMS-114 > 100 µM | OVCAR-5 > 100 µM | UACC-257 > 100 µM | U-251 > 100 µM | NCI-H522 > 100 µM
> 100000 nM: HCT-15
